These compounds were tested against T1, human ferroportin (Homo sapiens, UniProt Q9NP59) (assay: Biological in-vitro ferroportin internalization assay (luciferase reporter)). Conditions: average pEC50; stably-transfected CHO cell line expressing human ferroportin tagged to a luciferase reporter; 6 h incubation with test compound.
T1 construct: luciferase reporter (read with the Nano-Glo Luciferase Assay System); expressed in transfected cells; host or cells: CHO cells, stably transfected, expression induced with doxycycline
T1 sequence (Q9NP59 1-571): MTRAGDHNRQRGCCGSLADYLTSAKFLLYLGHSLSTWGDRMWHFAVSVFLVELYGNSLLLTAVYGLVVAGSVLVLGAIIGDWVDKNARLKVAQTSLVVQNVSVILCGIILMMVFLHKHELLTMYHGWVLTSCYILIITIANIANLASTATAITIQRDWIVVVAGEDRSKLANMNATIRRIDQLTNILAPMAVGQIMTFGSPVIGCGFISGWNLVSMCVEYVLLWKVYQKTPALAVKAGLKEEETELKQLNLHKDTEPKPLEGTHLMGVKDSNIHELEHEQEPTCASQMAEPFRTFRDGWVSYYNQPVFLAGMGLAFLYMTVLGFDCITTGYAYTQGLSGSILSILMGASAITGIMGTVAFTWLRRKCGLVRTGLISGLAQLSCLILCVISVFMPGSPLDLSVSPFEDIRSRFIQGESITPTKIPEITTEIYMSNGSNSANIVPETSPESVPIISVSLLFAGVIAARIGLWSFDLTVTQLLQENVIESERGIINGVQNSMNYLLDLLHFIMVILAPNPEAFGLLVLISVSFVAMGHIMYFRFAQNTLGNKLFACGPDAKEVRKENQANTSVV
Format: cell-based
Method: The protocol for this assay is generally as described in WO2018/128828, incorporated herein by reference in its entirety. Functional internalization of ferroportin protein was measured using a stably-transfected CHO cell line expressing the human ferroportin tagged to a luciferase reporter. Cells were plated for 24 h in the presence of ferric ammonium citrate (FAC). Ferroportin protein expression was induced with doxycycline for 24 h. The next day, the compounds were added. Test compounds were dissolved in DMSO. Cells were incubated with the test compounds for 6 h, and subsequently luciferase activity was measured using the Nano-Glo Luciferase Assay System and Glomax (Promega, Madison, Wis.). The average pEC50 was determined for the test compounds.

| pEC50 | SMILES |
| --- | --- |
| 8 | CN(CC(=O)NC1(C)CCC1)c1nc(-c2cc(OCCO)ccn2)nc2c1CCC2 [Compound 376, 2-({2-[4-(2-hydroxyethoxy)pyridin-2-yl]-5H,6H,7H-cyclopenta[d]pyrimidin-4-yl}(methyl)amino)-N-(1-methylcyclobutyl)acetamide] |
| 7.9 | CN(CC(=O)NC(C)(C)C)c1nc(-c2cc(OCCn3cnnn3)ccn2)nc2c1CCC2 [Compound 466, N-tert-butyl-2-[methyl(2-{4-[2-(1H-1,2,3,4-tetrazol-1-yl)ethoxy]pyridin-2-yl}-5H,6H,7H-cyclopenta[d]pyrimidin-4-yl)amino]acetamide] |
| 7 | C[C@H](C(=O)NC1CC(F)(F)C1)N(C)c1nc(-c2ccccn2)nc2c1CCC2 [Compound 109, (2R)—N-(3,3-difluorocyclobutyl)-2-{methyl[2-(pyridin-2-yl)-5H,6H,7H-cyclopenta[d]pyrimidin-4-yl]amino}propanamide] |
| 7.2 | Cc1ccc(-c2nc3c(c(N(C)CC(=O)NC(C)(C)C)n2)CCC3)nc1 [Compound 104, N-tert-butyl-2-{methyl[2-(5-methylpyridin-2-yl)-5H,6H,7H-cyclopenta[d]pyrimidin-4-yl]amino}acetamide] |
| 6.2 | CN(CC(=O)Nc1cnn(C)c1)c1nc(-c2cc(OC(F)(F)F)ccn2)nc2c1CCC2 [Compound 231, 2-[methyl({2-[4-(trifluoromethoxy)pyridin-2-yl]-5H,6H,7H-cyclopenta[d]pyrimidin-4-yl})amino]-N-(1-methyl-1H-pyrazol-4-yl)acetamide] |
| 7.3 | CC(C)NC(=O)CN(C)c1nc(-c2cc(OCCN3CCOCC3=O)ccn2)nc2c1CCC2 [Compound 436, 2-[methyl(2-{4-[2-(3-oxomorpholin-4-yl)ethoxy]pyridin-2-yl}-5H,6H,7H-cyclopenta[d]pyrimidin-4-yl)amino]-N-(propan-2-yl)acetamide] |
| 6.7 | CC1(C)CC[C@H](Nc2nc(-c3ccccn3)nc3c2CCC3)C(=O)N1 [Compound 56, (3S)-6,6-dimethyl-3-{[2-(pyridin-2-yl)-5H,6H,7H-cyclopenta[d]pyrimidin-4-yl]amino}piperidin-2-one] |
| 8.4 | CN(CC(=O)NC(C)(C)C)c1nc(-c2cc(OC[C@H](O)CF)ccn2)nc2c1CCC2 [Compound 452, N-tert-butyl-2-[(2-{4-[(2S)-3-fluoro-2-hydroxypropoxy]pyridin-2-yl}-5H,6H,7H-cyclopenta[d]pyrimidin-4-yl)(methyl)amino]acetamide] |
| 7.8 | CN(CC(=O)NC12CC(C1)C2)c1nc(-c2cc(OCCO)ccn2)nc2c1CCC2 [Compound 349, N-{bicyclo[1.1.1]pentan-1-yl}-2-({2-[4-(2-hydroxyethoxy)pyridin-2-yl]-5H,6H,7H-cyclopenta[d]pyrimidin-4-yl}(methyl)amino)acetamide] |
| 6.5 | O=C(CNc1nc(-c2ccccn2)nc2c1CCC2)Nc1ccccc1F [Compound 6, N-(2-fluorophenyl)-2-{[2-(pyridin-2-yl)-5H,6H,7H-cyclopenta[d]pyrimidin-4-yl]amino}acetamide] |
| 7.3 | CN(C)CCOc1ccnc(-c2nc3c(c(N(C)CC(=O)Nc4cnn(C5CC5)c4)n2)CCC3)c1 [Compound 410, N-(1-cyclopropyl-1H-pyrazol-4-yl)-2-[(2-{4-[2-(dimethylamino)ethoxy]pyridin-2-yl}-5H,6H,7H-cyclopenta[d]pyrimidin-4-yl)(methyl)amino]acetamide] |
| 7.6 | C[C@H](C(=O)NC1CCCCC1)N(C)c1nc(-c2ccccn2)nc2c1CCC2 [Compound 108, (2R)—N-cyclohexyl-2-{methyl[2-(pyridin-2-yl)-5H,6H,7H-cyclopenta[d]pyrimidin-4-yl]amino}propanamide] |
| 7.2 | CN(CC(=O)NC1CCOC1)c1nc(-c2cc(OCCO)ccn2)nc2c1CCC2 (stereo not shown) [Compound 149, 2-({2-[4-(2-hydroxyethoxy)pyridin-2-yl]-5H,6H,7H-cyclopenta[d]pyrimidin-4-yl}(methyl)amino)-N-(oxolan-3-yl)acetamide] |
| 7.8 | CN(CC(=O)NC(C)(C)C)c1nc(-c2cc3c(cn2)OCCO3)nc2c1CCC2 [Compound 122, N-tert-butyl-2-[(2-{2H,3H-[1,4]dioxino[2,3-c]pyridin-7-yl}-5H,6H,7H-cyclopenta[d]pyrimidin-4-yl)(methyl)amino]acetamide] |
| 7.6 | COc1ccc(NC(=O)CN(C)c2nc(-c3cc(OC4COC4)ccn3)nc3c2CCC3)cn1 [Compound 253, N-(6-methoxypyridin-3-yl)-2-[methyl({2-[4-(oxetan-3-yloxy)pyridin-2-yl]-5H,6H,7H-cyclopenta[d]pyrimidin-4-yl})amino]acetamide] |
| 7.1 | CN(CC(=O)Nc1cncc(F)c1)c1nc(-c2cc3ccccc3cn2)nc2c1CCC2 [Compound 240, N-(5-fluoropyridin-3-yl)-2-{[2-(isoquinolin-3-yl)-5H,6H,7H-cyclopenta[d]pyrimidin-4-yl](methyl)amino}acetamide] |
| 7.4 | COc1ccnc(-c2nc3c(c(N(C)CC(=O)Nc4ccc(F)nc4)n2)CCC3)c1 [Compound 128, N-(6-fluoropyridin-3-yl)-2-{[2-(4-methoxypyridin-2-yl)-5H,6H,7H-cyclopenta[d]pyrimidin-4-yl](methyl)amino}acetamide] |
| 7.9 | Cc1ccc(NC(=O)CN(C)c2nc(-c3cc(OCCO)ccn3)nc3c2CCC3)cn1 [Compound 199, 2-({2-[4-(2-hydroxyethoxy)pyridin-2-yl]-5H,6H,7H-cyclopenta[d]pyrimidin-4-yl}(methyl)amino)-N-(6-methylpyridin-3-yl)acetamide] |
| 7.3 | CN(CC(=O)NC(C)(C)C)c1nc(-c2ccccn2)nc2c1CCC2 [Compound 89, N-tert-butyl-2-{methyl[2-(pyridin-2-yl)-5H,6H,7H-cyclopenta[d]pyrimidin-4-yl]amino}acetamide] |
| 7.8 | CCNC(=O)CN(C)c1nc(-c2cc(OCC(C)(C)O)ccn2)nc2c1CCC2 [Compound 390, N-ethyl-2-({2-[4-(2-hydroxy-2-methylpropoxy)pyridin-2-yl]-5H,6H,7H-cyclopenta[d]pyrimidin-4-yl}(methyl)amino)acetamide] |
| 6.8 | CN(Cc1ccccn1)c1nc(-c2ccccn2)nc2c1CCC2 [Compound 73, N-methyl-2-(pyridin-2-yl)-N-[(pyridin-2-yl)methyl]-5H,6H,7H-cyclopenta[d]pyrimidin-4-amine] |
| 7.8 | Cc1ccc(NC(=O)CN(C)c2nc(-c3cc(OCC4(O)CC4)ccn3)nc3c2CCC3)cn1 [Compound 330, 2-[(2-{4-[(1-hydroxycyclopropyl)methoxy]pyri-din-2-yl}-5H,6H,7H-cyclopenta[d]pyrimidin-4-yl)(methyl)amino]-N-(6-methylpyridin-3-yl)acetamide] |
| 8 | Cc1cc(OCC(C)(C)O)cc(-c2nc3c(c(N(C)CC(=O)NC(C)(C)C)n2)CCC3)n1 [Compound 440, N-tert-butyl-2-({2-[4-(2-hydroxy-2-methylpropoxy)-6-methylpyridin-2-yl]-5H,6H,7H-cyclopenta[d]pyrimidin-4-yl}(methyl)amino)acetamide] |
| 6.2 | CC(C)(C)NC(=O)CNc1cc(-c2ccccn2)nc2c1CCC2 [Compound 9, N-tert-butyl-2-{[2-(pyridin-2-yl)-5H,6H,7H-cyclopenta[b]pyridin-4-yl]amino}acetamide] |
| 7.8 | CN(CC(=O)Nc1cnn(C2CC2)c1)c1nc(-c2cc(OCCO)ccn2)nc2c1CCC2 [Compound 353, N-(1-cyclopropyl-1H-pyrazol-4-yl)-2-({2-[4-(2-hydroxyethoxy)pyridin-2-yl]-5H,6H,7H-cyclopenta[d]pyrimidin-4-yl}(methyl)amino)acetamide] |
| 7.2 | COc1ccc(N(C)C(=O)CN(C)c2nc(-c3cc(OCCO)ccn3)nc3c2CCC3)cc1 [Compound 334, 2-({2-[4-(2-hydroxyethoxy)pyridin-2-yl]-5H,6H,7H-cyclopenta[d]pyrimidin-4-yl}(methyl)amino)-N-(4-methoxyphenyl)-N-methylacetamide] |
| 8.2 | C[C@@H](CO)Oc1ccnc(-c2nc3c(c(N(C)CC(=O)NC(C)(C)C)n2)CCC3)c1 [Compound 385, N-tert-butyl-2-{[2-(4-{[(2S)-1-hydroxypropan-2-yl]oxy}pyridin-2-yl)-5H,6H,7H-cyclopenta[d]pyrimidin-4-yl](methyl)amino}acetamide] |

| SMILES | pEC50 |
| --- | --- |
| CCC(O)(CC)COc1ccnc(-c2nc3c(c(N(C)CC(=O)N[C@@H]4CCC[C@@H]4O)n2)CCC3)c1 [Compound 469, 2-({2-[4-(2-ethyl-2-hydroxybutoxy)pyridin-2-yl]-5H,6H,7H-cyclopenta[d]pyrimidin-4-yl}(methyl)amino)-N-[(1R,2S)-2-hydroxycyclopentyl]acetamidede] | 8.3 |

Source: patent US11746100B2 (GLOBAL BLOOD THERAPEUTICS, INC., priority 2020, dated 2023)
